Read-outs that look alike come from different tables or passages of the source.
Legend:
[1] = tested on: J6(2a)-Y93H; assay: BMS-790052 treatment of infected cultures; format: cell-based, hepatitis C virus
Experimental: (§1) 5×10^3 naïve Huh7.5 cells were plated per well in a poly-D-lysine coated 96-well plate (Nunc, Roskilde, D K) one day before infection with different recombinant viruses. Infectious doses were chosen to aim at 400-1000 single infected cells in non-treated wells at the end of the experiment. J6/JFH1 was included with two infectious doses (high and low) to control for impact of dose variability. The infectious dose of other recombinants was in the range between. […] On day three cells were fixed and immunostained for NS3 expression as described above. In parallel, cell viability was monitored with CellTiter™ 96 AQueous One Solution Cell Proliferation Assay (Promega, Madison, Wis. USA). The number of single infected cells was determined by automated counting of individual wells as described above.
(§2) To improve HCV treatment, much attention has been drawn to development of specific small molecule HCV inhibitors, including inhibitors of NS5A. Using the NS5A genotype recombinants, we investigated sensitivity to the NS5A inhibitor most advanced in clinical trials, BMS-790052. Treatment experiments using the specific NS5A inhibitor BMS-790052 (synthesized by Acme Bioscience, Palo Alto, Calif., USA) were conducted similar to what was described for interferon-alpha.
(§3) The best described resistance mutation for this drug class, change of NS5A residue 93, induced >10-fold resistance to BMS-790052 for genotype 1 replicons. We changed this residue to histidine in the NS5A genotype 1-6 recombinants; QC69(7a) naturally had histidine. In BMS-790052 treatment experiments, H77C(1a)-Y93H, JFH1(2a)-Y93H and S52(3a)-Y93H were >1000-fold, J4(1b)-Y93H, J6(2a)-Y93H and ED43(4a)-Y93H˜100-fold, and SA13(5a)-T93H and HK6a(6a)-T93H<5-fold more resistant than the respective original recombinants (Table 21). […] The presence of L31M in the J6(2a) isolate and C92E in the S52(3a) isolate corresponded to the higher resistance of these isolates. Further, the lower sensitivity of J1(1a) compared to other 1a recombinants could be caused by the histidine found at NS5A residue 30, previously associated with resistance in patients.

[2] = tested on: J6/JFH1 with NS5A mutation C92E; assay: BMS-790052 treatment of infected cultures; format: cell-based, hepatitis C virus
Experimental: as §1, §2, §3

[3] = tested on: ED43(4a)-Y93H; assay: BMS-790052 treatment of infected cultures; format: cell-based, hepatitis C virus
Experimental: as §1, §2, §3

[4] = tested on: HK6a(6a)-T93H; assay: BMS-790052 treatment of infected cultures; format: cell-based, hepatitis C virus
Experimental: as §1, §2, §3

[5] = tested on: J4(1b)-Y93H; assay: BMS-790052 treatment of infected cultures; format: cell-based, hepatitis C virus
Experimental: as §1, §2, §3

[6] = tested on: H77C(1a)-Y93H; assay: BMS-790052 treatment of infected cultures; format: cell-based, hepatitis C virus
Experimental: as §1, §2, §3

[7] = tested on: S52(3a)-Y93H; assay: BMS-790052 treatment of infected cultures; format: cell-based, hepatitis C virus
Experimental: as §1, §2, §3

[8] = tested on: J6/JFH1 with JFH1 NS5A domain I exchanged to the J6 sequence; assay: BMS-790052 treatment of infected cultures; format: cell-based, hepatitis C virus
Experimental: as §1, §2, §3

[9] = tested on: J6/JFH1 with NS5A mutation L31M; assay: BMS-790052 treatment of infected cultures; format: cell-based, hepatitis C virus
Experimental: as §1, §2, §3

[10] = tested on: JFH1(2a)-Y93H; assay: BMS-790052 treatment of infected cultures; format: cell-based, hepatitis C virus
Experimental: as §1, §2, §3

[11] = tested on: SA13(5a)-T93H; assay: BMS-790052 treatment of infected cultures; format: cell-based, hepatitis C virus
Experimental: as §1, §2, §3

[12] = tested on: J6/JFH1 with NS5A mutation K30A; assay: BMS-790052 treatment of infected cultures; format: cell-based, hepatitis C virus
[13] = tested on: genotype 1 replicons; settings: cited from earlier work
[14] = tested on: J6(2a) NS5A recombinant; assay: BMS-790052 treatment of infected cultures; format: cell-based; settings: Hepatitis C virus
Experimental: as §1, §2

[15] = tested on: DH6(1a) NS5A recombinant; assay: BMS-790052 treatment of infected cultures; format: cell-based; settings: Hepatitis C virus; genotype 1a, isolate DH6 NS5A recombinant; read-out: NS5A inhibitor, EC50 (nM), original
Experimental: as §1, §2

[16] = tested on: SA13(5a) NS5A recombinant; assay: BMS-790052 treatment of infected cultures; format: cell-based; settings: Hepatitis C virus; genotype 5a, isolate SA13 NS5A recombinant; read-out: NS5A inhibitor, EC50 (nM), original
Experimental: as §1, §2

SMILES: COC(=O)N[C@H](C(=O)N1CCC[C@H]1c1nc(-c2ccc(-c3ccc(-c4c[nH]c([C@@H]5CCCN5C(=O)[C@@H](NC(=O)OC)C(C)C)n4)cc3)cc2)c[nH]1)C(C)C [BMS-790052]
- EC50 ([1]; Hepatitis C virus, J6(2a), NS5A mutation Y93H, read-out: NS5A inhibitor, EC50 (nM), putative resistance mutant): 2000 nM
- Fold resistance compared to original ([1]; J6(2a) Y93H vs original J6(2a)): 140 fold
- fold more resistant than the respective original recombinant ([1]; J6(2a)-Y93H): ~100 fold
- EC50 ([2]; Hepatitis C virus, JFH1(2a), NS5A mutation C92E, single experiment of three replicates, read-out: NS5A inhibitor, EC50 (nM), putative resistance mutant): 14 nM
- Fold resistance compared to original ([2]; JFH1(2a) C92E vs original JFH1(2a)): 170 fold
- resistance ([2]; NS5A C92E in the J6/JFH1 background): confer resistance
- Fold resistance compared to original ([3]; ED43(4a) Y93H vs original ED43(4a)): 30 fold
- fold more resistant than the respective original recombinant ([3]; ED43(4a)-Y93H): ~100 fold
- EC50 ([3]; Hepatitis C virus, read-out: NS5A inhibitor, EC50 (nM), putative resistance mutant): 0.53 nM
- Fold resistance compared to original ([4]; HK6a(6a) T93H vs original HK6a(6a)): 4.3 fold
- fold more resistant than the respective original recombinant ([4]; HK6a(6a)-T93H): < 5 fold
- EC50 ([4]; Hepatitis C virus, HK6a(6a), NS5A mutation T93H, read-out: NS5A inhibitor, EC50 (nM), putative resistance mutant): 0.14 nM
- EC50 ([5]; Hepatitis C virus, J4(1b), NS5A mutation Y93H, read-out: NS5A inhibitor, EC50 (nM), putative resistance mutant): 0.77 nM
- Fold resistance compared to original ([5]; J4(1b) Y93H vs original J4(1b)): 82 fold
- fold more resistant than the respective original recombinant ([5]; J4(1b)-Y93H): ~100 fold
- Fold resistance compared to original ([6]; H77C(1a) Y93H vs original H77C(1a)): 4300 fold
- fold more resistant than the respective original recombinant ([6]; H77C(1a)-Y93H): > 1000 fold
- EC50 ([6]; Hepatitis C virus, H77C(1a), NS5A mutation Y93H, read-out: NS5A inhibitor, EC50 (nM), putative resistance mutant): 110 nM
- EC50 ([7]; Hepatitis C virus, S52(3a), NS5A mutation Y93H, read-out: NS5A inhibitor, EC50 (nM), putative resistance mutant): 1900 nM
- Fold resistance compared to original ([7]; S52(3a) Y93H vs original S52(3a)): 2100 fold
- fold more resistant than the respective original recombinant ([7]; S52(3a)-Y93H): > 1000 fold
- EC50 ([8]; Hepatitis C virus, genotype 2a, J6 (domain I), single experiment of three replicates, read-out: NS5A inhibitor, EC50 (nM), original): 19 nM
- resistance ([8]; exchange of JFH1 NS5A domain I to the corresponding J6 sequence): confer resistance
- EC50 ([9]; Hepatitis C virus, JFH1(2a), NS5A mutation L31M, single experiment of three replicates, read-out: NS5A inhibitor, EC50 (nM), putative resistance mutant): 17 nM
- Fold resistance compared to original ([9]; JFH1(2a) L31M vs original JFH1(2a)): 190 fold
- resistance ([9]; NS5A L31M in the J6/JFH1 background): confer resistance
- EC50 ([10]; Hepatitis C virus, JFH1(2a), NS5A mutation Y93H, read-out: NS5A inhibitor, EC50 (nM), putative resistance mutant): 140 nM
- Fold resistance compared to original ([10]; JFH1(2a) Y93H vs original JFH1(2a)): 1600 fold
- fold more resistant than the respective original recombinant ([10]; JFH1(2a)-Y93H): > 1000 fold
- EC50 ([11]; Hepatitis C virus, SA13(5a), NS5A mutation T93H, read-out: NS5A inhibitor, EC50 (nM), putative resistance mutant): 0.14 nM
- Fold resistance compared to original ([11]; SA13(5a) T93H vs original SA13(5a)): 4.2 fold
- fold more resistant than the respective original recombinant ([11]; SA13(5a)-T93H): < 5 fold
- EC50 ([12]; Hepatitis C virus, JFH1(2a), NS5A mutation K30A, single experiment of three replicates, read-out: NS5A inhibitor, EC50 (nM), putative resistance mutant): 0.034 nM
- Fold resistance compared to original ([12]; JFH1(2a) K30A vs original JFH1(2a)): 0.38 fold
- fold resistance induced by change of NS5A residue 93 [13]: > 10 fold
- EC50 ([14]; J6(2a), read-out: EC50): 14 nM
- EC50 ([14]; genotype 2a, isolate J6 NS5A recombinant, read-out: NS5A inhibitor, EC50 (nM), original): 14 nM
- EC50 [15]: 0.065 nM
- EC50 [16]: 0.034 nM
